For one experiment, the target named is Recombinant human DPP-IV (Homo sapiens, UniProt P27487). The experiment in a line: DPP-IV assay in vitro (H-Ala-Pro-AFC fluorescence). Type of experiment: biochemical. The note with it: 30 min pre-incubation, H-Ala-Pro-AFC 50 μM. As for the experimental part: DPP-IV Assay Solutions of test compounds in varying concentrations (10^−5 mol/L, 10^−6 mol/L, 10^−7 mol/L, 10^−8 mol/L, 10^−9 mol/L, 10^−10 mol/L, 10^−11 mol/L, and 10^−12 mol/L) were prepared in dimethyl sulfoxide (DMSO) and then diluted into assay buffer comprising: 10 mM Tris-HCl pH 8.0, 0.2 M NaCl, and 0.1% BSA. Recombinant human DPP-IV (7.8 ng/ml final concentration) was added to the dilutions and pre-incubated for 30 mins at room temperature before the reaction was initiated with H-Ala-Pro-AFC (50 μM final concentration). The total volume of the reaction mixture was 100 μl.
Inhibition constants (IC50) were calculated by GraphPad Prism.

The target of a further experiment is T1, DPP-4 (Mus musculus, UniProt P28843).
T1 construct: Blood sample was processed to obtain plasma; from tissue; host or cells: plasma of male ICR mice
In words: Plasma DPP-4 activity in mice after oral dosing. Type of experiment: in vivo, ICR mice. Particulars: read-out: DPP-4 Relative activity %; for activity at 1 mg/kg: oral 1 mg/kg; for activity at 3 mg/kg: mice plasma, oral 3 mg/kg. As for the experimental part:
Some of the exemplary compounds were tested in mice to assess inhibition of DPP-4 activity via plasma DPP-4 activity. Male ICR mice (25-30 g) were used for this study. All the mice were fasted at least 3 hours before study. Mice (n=6/group) received vehicle or at least one of the exemplary compounds by oral gavage. The dosing solutions were 0.15 mg/ml for the 3 mg/kg. Dosing volume was 20 mL/kg of body weight for all doses. The vehicle was distilled water. […] Blood sample was processed to obtain plasma (2000 g, 5 min, 4° C.) within 15 min after sampling.
Plasma was collected and tested by fluoremetry. Before the testing, 80 mM MgCl2 buffer was added into the 5 uL serum samples and pre-incubation for 5 minutes at room temperature, then […] of 0.1 mM substrate Gly-Pro-AMC and 20 μL of buffer were added into them. The fluorescence of the mixture was measured every 3 minutes after mixing (excitation at 380 nm; emission at 460 nm). After 6 times of measurements, a time-fluorescence cure was obtained. The slope of the curve would be the activity of DPP-4 in serum. The DPP-4 activity before administration was 100%. The relative activity of DPP-4 in serum was calculated using the formula below:
Relative DPP-4activity=DPP-4activity after dosing/DPP-4activity before dosing×100%.

Where [1] appears, read: Table 4 Test 2, mice plasma, 1 h after dosing.
The mark [2] stands for this setting: Table 4 Test 2, mice plasma, 2 h after dosing.
Setting [3] is: Table 4 Test 2, mice plasma, 4 h after dosing.
[4] abbreviates: Table 4 Test 2, mice plasma, 6 h after dosing.
[5] abbreviates: Table 4 Test 2, mice plasma, 9 h after dosing.
Where [6] appears, read: Table 4 Test 1, mice plasma, 1 h after dosing.
Where [7] appears, read: Table 4 Test 1, mice plasma, 2 h after dosing.
Setting [8] is: Table 4 Test 1, mice plasma, 4 h after dosing.
Setting [9] is: Table 4 Test 1, mice plasma, 6 h after dosing.
The mark [10] stands for this setting: Table 4 Test 1, mice plasma, 9 h after dosing.

Where two headings read alike, the source gives them in different places.

For orientation: IC50 means the midpoint of a concentration-inhibition curve.

Recombinant human DPP-IV, sequence (P27487 whole entry): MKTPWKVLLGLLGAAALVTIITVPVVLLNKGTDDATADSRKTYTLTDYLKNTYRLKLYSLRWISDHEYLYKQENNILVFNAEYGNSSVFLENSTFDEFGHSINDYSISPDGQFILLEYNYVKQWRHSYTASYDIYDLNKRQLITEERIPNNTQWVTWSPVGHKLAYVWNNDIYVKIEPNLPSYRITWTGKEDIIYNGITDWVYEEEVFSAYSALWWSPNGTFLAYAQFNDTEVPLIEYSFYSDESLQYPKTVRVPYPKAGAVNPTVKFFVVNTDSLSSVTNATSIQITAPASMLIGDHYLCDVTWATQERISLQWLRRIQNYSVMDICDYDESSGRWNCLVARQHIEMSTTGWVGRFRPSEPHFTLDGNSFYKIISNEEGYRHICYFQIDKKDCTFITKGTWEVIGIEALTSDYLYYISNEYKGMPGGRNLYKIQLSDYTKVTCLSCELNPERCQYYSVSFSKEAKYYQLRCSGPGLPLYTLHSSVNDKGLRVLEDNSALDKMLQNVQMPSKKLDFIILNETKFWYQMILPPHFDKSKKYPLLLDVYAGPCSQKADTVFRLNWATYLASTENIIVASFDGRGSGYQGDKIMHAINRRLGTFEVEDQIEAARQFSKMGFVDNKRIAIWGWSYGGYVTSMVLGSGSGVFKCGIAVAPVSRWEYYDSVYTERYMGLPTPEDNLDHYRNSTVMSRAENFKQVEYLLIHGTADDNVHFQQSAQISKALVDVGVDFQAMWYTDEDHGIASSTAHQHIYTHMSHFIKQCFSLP
T1 sequence (P28843 37-760 limits assumed): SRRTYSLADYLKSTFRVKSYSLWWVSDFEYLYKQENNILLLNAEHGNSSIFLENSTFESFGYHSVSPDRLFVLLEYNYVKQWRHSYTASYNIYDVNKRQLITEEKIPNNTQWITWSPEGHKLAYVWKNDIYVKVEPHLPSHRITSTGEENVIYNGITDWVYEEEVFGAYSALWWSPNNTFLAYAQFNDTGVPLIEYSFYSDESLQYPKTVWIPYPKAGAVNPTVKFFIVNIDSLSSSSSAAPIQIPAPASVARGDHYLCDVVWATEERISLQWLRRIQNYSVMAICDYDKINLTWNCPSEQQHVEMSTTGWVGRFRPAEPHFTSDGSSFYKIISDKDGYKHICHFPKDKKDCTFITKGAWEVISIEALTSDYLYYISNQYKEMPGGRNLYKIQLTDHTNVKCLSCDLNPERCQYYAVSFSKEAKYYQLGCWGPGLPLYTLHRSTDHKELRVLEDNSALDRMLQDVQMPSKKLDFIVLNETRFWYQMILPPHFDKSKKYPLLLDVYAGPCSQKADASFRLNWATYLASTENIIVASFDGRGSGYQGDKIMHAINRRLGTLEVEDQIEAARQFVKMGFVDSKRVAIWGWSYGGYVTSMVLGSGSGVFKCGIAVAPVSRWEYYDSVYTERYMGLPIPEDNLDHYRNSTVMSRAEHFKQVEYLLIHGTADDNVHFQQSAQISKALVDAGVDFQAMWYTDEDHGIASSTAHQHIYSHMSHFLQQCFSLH

For `N[C@H]1Cc2c(nc3cc(-c4ncon4)ccn23)C[C@@H]1c1cc(F)c(F)cc1F` [Example 3, (7R,8S)-3-(1,2,4-Oxadiazol-3-yl)-7-(2,4,5-trifluorophenyl)-6,7,8,9-tetrahydrobenzo[4,5]imidazo[1,2-a]pyridine-8-amine], on Recombinant human DPP-IV, the IC50 was determined as 1.7 nM. Also, the activity at 1 mg/kg at DPP-4 (setting [1]) turned out to be 15 ± 0.6%; at DPP-4 (setting [2]), 13.6 ± 1.7%; at DPP-4 (setting [3]), 8.6 ± 1.1%; at DPP-4 (setting [4]) it was 13.8 ± 2.4%; on DPP-4 (setting [5]), 11.8 ± 2.4%; at DPP-4 (Table 4 Test 2, mice plasma, 12 h after dosing), 15.6 ± 2.4%. The activity at 1 mg/kg on DPP-4 (Table 4 Test 2, mice plasma, 24 h after dosing) was found to be 38.4 ± 4.3%. Also, the activity at 3 mg/kg on DPP-4 (1 h after dosing) came to 16 ± 2.3%; on DPP-4 (2 h after dosing), 15 ± 3%; at DPP-4 (3 h after dosing), 20 ± 1.8%; on DPP-4 (5 h after dosing), 26.5 ± 3.5%.

For `Cc1nc(-c2ccn3c4c(nc3c2)C[C@H](c2cc(F)c(F)cc2F)[C@@H](N)C4)no1` [Example 4, (7R,8S)-3-(5-Methyl-1,2,4-oxadiazol-3-yl)-7-(2,4,5-trifluorophenyl)-6,7,8,9-tetrahydrobenzo[4,5]imidazo[1,2-a]pyridin-8-amine], the IC50 at Recombinant human DPP-IV was determined as 1.9 nM. The activity at 1 mg/kg at DPP-4 (setting [1]) was 11.5 ± 1.8%; at DPP-4 (setting [2]), 9 ± 1.3%; on DPP-4 (setting [3]), 10.2 ± 1.8%; on DPP-4 (setting [4]) it was 10.4 ± 1.8%; on DPP-4 (setting [5]), 11.6 ± 1.6%. Also, the activity at 3 mg/kg worked out at 24.4 ± 2.8% at DPP-4 (1 h after dosing), 21.7 ± 1.7% on DPP-4 (2 h after dosing), 20.4 ± 2% on DPP-4 (3 h after dosing) and 28.3 ± 2.3% at DPP-4 (5 h after dosing).

In the case of `Cc1noc(-c2ccn3c4c(nc3c2)C[C@H](c2cc(F)c(F)cc2F)[C@@H](N)C4)n1` [Example 6, (7R,8S)-3-(3-Methyl-1,2,4-oxadiazol-5-yl)-7-(2,4,5-trifluorophenyl)-6,7,8,9-tetrahydrobenzo[4,5]imidazo[1,2-a]pyridin-8-amine], the IC50 at Recombinant human DPP-IV was determined as 1.9 nM. Also, the activity at 1 mg/kg was 16.9 ± 1.4% on DPP-4 (setting [6]); 15.9 ± 1.9% on DPP-4 (setting [7]); 15.7 ± 1% at DPP-4 (setting [8]); 16 ± 1.2% at DPP-4 (setting [9]); 19.5 ± 1.8% at DPP-4 (setting [10]).

As for `Cn1nnc(-c2ccn3c4c(nc3c2)C[C@H](c2cc(F)c(F)cc2F)[C@@H](N)C4)n1` [Example 11, (7R,8S)-3-(2-methyl-2H-tetrazol-5-yl)-7-(2,4,5-trifluorophenyl)-6,7,8,9-tetrahydrobenzo[4,5]imidazo[1,2-a]pyridin-8-amine], at Recombinant human DPP-IV, the IC50 worked out at 3 nM. Further, the activity at 1 mg/kg is 9 ± 1.4% at DPP-4 (Table 3, mice plasma, 1 h after dosing); 11.5 ± 1.1% on DPP-4 (Table 3, mice plasma, 2 h after dosing); 10.9 ± 2.8% at DPP-4 (Table 3, mice plasma, 4 h after dosing); 11.5 ± 0.5% at DPP-4 (Table 3, mice plasma, 6 h after dosing); 10 ± 1.3% at DPP-4 (Table 3, mice plasma, 9 h after dosing); 11 ± 2% on DPP-4 (Table 3, mice plasma, 12 h after dosing). The activity at 1 mg/kg was found to be 14.5 ± 2.2% on DPP-4 (Table 3, mice plasma, 24 h after dosing); 9 ± 1.4% on DPP-4 (setting [6]); 11.5 ± 1.1% at DPP-4 (setting [7]); 10.9 ± 2.8% on DPP-4 (setting [8]); 11.5 ± 0.5% on DPP-4 (setting [9]); 10 ± 1.3% at DPP-4 (setting [10]). The activity at 1 mg/kg was 11 ± 2.2% on DPP-4 (Table 4 Test 1, mice plasma, 12 h after dosing) and 14.5 ± 2.2% on DPP-4 (Table 4 Test 1, mice plasma, 24 h after dosing).
